Laboratory results: patent publication US20250213550A1, “COMPOUNDS AND METHODS FOR TREATING INFLAMMATORY BOWEL DISEASE” (Gilead Sciences, Inc., priority 2023, published 2025)
Like-named read-outs stand apart in the source and are kept apart here.

Tested on: LPS-stimulated pERK in monocytes (TPL2 pathway)
Test: Ex vivo LPS-stimulated pERK in monocytes of whole blood after Compound 1 dosing (flow cytometry)
Parameters: species or system human
Details: for inhibition at 300 mg / inhibition at 600 mg / inhibition at 900 mg / inhibition at 75 mg: Homo sapiens, Monocyte; for inhibition at 75 mg: 75 mg QD multiple dose
Experimental: For Cohorts 1-4, whole blood PD sampling occurred relative to the dose of Compound 1 at the following time points: • Day 1: 0 pre-dose (≤5 min prior to dosing), 1, 2, 3, 4, 8, 12, 24 and 36 hours post-dose
For Cohorts 5-9, whole blood PD sampling occurred relative to the dose of Compound 1 at the following time points: • Day 1: 0 pre-dose (≤5 min prior to dosing), 1, 2, 3, 4, 8, 12, and 24 hours post-dose • Day 10: 0 pre-dose (≤5 min prior to dosing), 1, 2, 3, 4, 8, 12, 24, 36, 48, 72, 96, and 120 hours post-dose
Whole blood PD Samples were stimulated ex vivo with lipopolysaccharide (LPS) or phosphate buffered saline (PBS), and the phosphorylation of extracellular signal-related kinase (pERK) was detected in monocytes by flow cytometry.
Pharmacodynamic changes after single and multiple doses of Compound 1 were also investigated by monitoring, in whole blood samples, stimulated with either lipopolysaccharide (LPS) or PBS for 15 minutes at 37° C. Changes to the phosphorylation of extracellular signal-regulated kinases (pERK) was measured in monocytes by flow cytometry, defined as CD15−CD14+.
Pharmacodynamic parameters for Compound 1 were calculated as percent change in pERK signal relative to Day 1 pre-dose (baseline) for all evaluable participants.
Multiple Ascending Doses: Pharmacodynamic parameters after multiple doses of Compound 1 were also calculated as percent change in pERK signal relative to Day 1 pre-dose (baseline) for all evaluable participants.

`Cn1ccc2c([C@@H](c3cn(C45CC(C4)C5)nn3)N(C(=O)OCOP(=O)(O)O)c3cc(Cl)c4ncc(C#N)c(NCC(C)(C)C)c4c3)cccc2c1=O` [Compound 1] gave an inhibition at 300 mg (300 mg QD multiple dose, Day 1 1 hour, mean (SD), read-out: pERK Signal, % Inhibition) of 89.1%, an inhibition at 300 mg (300 mg QD multiple dose, Day 1 1 hour, median, read-out: pERK Signal, % Inhibition) of 93.8% and an inhibition at 300 mg (300 mg QD multiple dose, Day 1 3 hours, mean (SD), read-out: pERK Signal, % Inhibition) of 95.7%. It also gave an inhibition at 300 mg (300 mg QD multiple dose, Day 1 3 hours, median, read-out: pERK Signal, % Inhibition) of 97.1%, an inhibition at 300 mg (300 mg QD multiple dose, Day 1 12 hours, mean (SD), read-out: pERK Signal, % Inhibition) of 75.3% and an inhibition at 300 mg (300 mg QD multiple dose, Day 1 12 hours, median, read-out: pERK Signal, % Inhibition) of 74.3%. It also gave an inhibition at 300 mg (300 mg QD multiple dose, Day 10 1 hour, mean (SD), read-out: pERK Signal, % Inhibition) of 96.8%, an inhibition at 300 mg (300 mg QD multiple dose, Day 10 1 hour, median, read-out: pERK Signal, % Inhibition) of 97.1% and an inhibition at 300 mg (300 mg QD multiple dose, Day 10 3 hours, mean (SD), read-out: pERK Signal, % Inhibition) of 98.3%. It also gave an inhibition at 300 mg (300 mg QD multiple dose, Day 10 3 hours, median, read-out: pERK Signal, % Inhibition) of 98.7%, an inhibition at 300 mg (300 mg QD multiple dose, Day 10 12 hours, mean (SD), read-out: pERK Signal, % Inhibition) of 94% and an inhibition at 300 mg (300 mg QD multiple dose, Day 10 12 hours, median, read-out: pERK Signal, % Inhibition) of 95.7%. For the same compound, the inhibition at 300 mg (300 mg QD multiple dose, Day 10 24 hours, mean (SD), read-out: pERK Signal, % Inhibition) was 92.2%, the inhibition at 300 mg (300 mg QD multiple dose, Day 10 24 hours, median, read-out: pERK Signal, % Inhibition) was 91.6% and the inhibition at 600 mg (600 mg BID multiple dose, Day 1 1 hour, mean (SD), read-out: pERK Signal, % Inhibition) was 79.9%. It also gave an inhibition at 600 mg (600 mg BID multiple dose, Day 1 1 hour, median, read-out: pERK Signal, % Inhibition) of 74.3%, an inhibition at 600 mg (600 mg BID multiple dose, Day 1 3 hours, mean (SD), read-out: pERK Signal, % Inhibition) of 99.9% and an inhibition at 600 mg (600 mg BID multiple dose, Day 1 3 hours, median, read-out: pERK Signal, % Inhibition) of 99.9%. For the same compound, the inhibition at 600 mg (600 mg BID multiple dose, Day 1 12 hours, mean (SD), read-out: pERK Signal, % Inhibition) was 84.2%, the inhibition at 600 mg (600 mg BID multiple dose, Day 1 12 hours, median, read-out: pERK Signal, % Inhibition) was 91% and the inhibition at 600 mg (600 mg BID multiple dose, Day 10 1 hour, mean (SD), read-out: pERK Signal, % Inhibition) was 99.5%. It also gave an inhibition at 600 mg (600 mg BID multiple dose, Day 10 1 hour, median, read-out: pERK Signal, % Inhibition) of 100%, an inhibition at 600 mg (600 mg BID multiple dose, Day 10 3 hours, mean (SD), read-out: pERK Signal, % Inhibition) of 100% and an inhibition at 600 mg (600 mg BID multiple dose, Day 10 3 hours, median, read-out: pERK Signal, % Inhibition) of 100%. For the same compound, the inhibition at 600 mg (600 mg BID multiple dose, Day 10 12 hours, mean (SD), read-out: pERK Signal, % Inhibition) was 100%, the inhibition at 600 mg (600 mg BID multiple dose, Day 10 12 hours, median, read-out: pERK Signal, % Inhibition) was 100% and the inhibition at 600 mg (600 mg BID multiple dose, Day 10 24 hours, mean (SD), read-out: pERK Signal, % Inhibition) was 103%. It also gave an inhibition at 600 mg (600 mg BID multiple dose, Day 10 24 hours, median, read-out: pERK Signal, % Inhibition) of 102%, an inhibition at 900 mg (900 mg QD multiple dose, Day 1 1 hour, mean (SD), read-out: pERK Signal, % Inhibition) of 88.9% and an inhibition at 900 mg (900 mg QD multiple dose, Day 1 1 hour, median, read-out: pERK Signal, % Inhibition) of 95%. For the same compound, the inhibition at 900 mg (900 mg QD multiple dose, Day 1 3 hours, mean (SD), read-out: pERK Signal, % Inhibition) was 99.8%, the inhibition at 900 mg (900 mg QD multiple dose, Day 1 3 hours, median, read-out: pERK Signal, % Inhibition) was 99.6% and the inhibition at 900 mg (900 mg QD multiple dose, Day 1 12 hours, mean (SD), read-out: pERK Signal, % Inhibition) was 95.2%. It also gave an inhibition at 900 mg (900 mg QD multiple dose, Day 1 12 hours, median, read-out: pERK Signal, % Inhibition) of 95.3%, an inhibition at 900 mg (900 mg QD multiple dose, Day 10 1 hour, mean (N=1), read-out: pERK Signal, % Inhibition) of 99.4% and an inhibition at 900 mg (900 mg QD multiple dose, Day 10 1 hour, median (N=1), read-out: pERK Signal, % Inhibition) of 99.4%. The inhibition at 900 mg (900 mg QD multiple dose, Day 10 3 hours, mean (N=1), read-out: pERK Signal, % Inhibition) was 99.6%, the inhibition at 900 mg (900 mg QD multiple dose, Day 10 3 hours, median (N=1), read-out: pERK Signal, % Inhibition) was 99.6% and the inhibition at 900 mg (900 mg QD multiple dose, Day 10 12 hours, mean (N=1), read-out: pERK Signal, % Inhibition) was 96.7%. For the same compound, the inhibition at 900 mg (900 mg QD multiple dose, Day 10 12 hours, median (N=1), read-out: pERK Signal, % Inhibition) was 96.7%, the inhibition at 900 mg (900 mg QD multiple dose, Day 10 24 hours, mean (SD), read-out: pERK Signal, % Inhibition) was 98.3% and the inhibition at 900 mg (900 mg QD multiple dose, Day 10 24 hours, median, read-out: pERK Signal, % Inhibition) was 98.5%. The inhibition at 75 mg (24 h, Day 1 24 hours, mean (SD), read-out: pERK Signal, % Inhibition) was 1%, the inhibition at 75 mg (24 h, Day 1 24 hours, median, read-out: pERK Signal, % Inhibition) was 4.4% and the inhibition at 300 mg (24 h, 300 mg QD multiple dose, Day 1 24 hours, mean (SD), read-out: pERK Signal, % Inhibition) was 72.9%. For the same compound, the inhibition at 300 mg (24 h, 300 mg QD multiple dose, Day 1 24 hours, median, read-out: pERK Signal, % Inhibition) was 71.5%, the inhibition at 300 mg (24 h, 300 mg QD, steady state, 24 hours post-last dose, read-out: inhibition of LPS-stimulated pERK) was > 90% and the inhibition at 600 mg (24 h, 600 mg BID multiple dose, Day 1 24 hours, mean (SD), read-out: pERK Signal, % Inhibition) was 97.6%. For the same compound, the inhibition at 600 mg (24 h, 600 mg BID multiple dose, Day 1 24 hours, median, read-out: pERK Signal, % Inhibition) was 99.5%, the inhibition at 600 mg (24 h, 600 mg BID, steady state, 24 hours post-last dose, read-out: inhibition of LPS-stimulated pERK) was > 90% and the inhibition at 900 mg (24 h, 900 mg QD multiple dose, Day 1 24 hours, mean (SD), read-out: pERK Signal, % Inhibition) was 90.2%. For the same compound, the inhibition at 900 mg (24 h, 900 mg QD multiple dose, Day 1 24 hours, median, read-out: pERK Signal, % Inhibition) was 89.9%, the inhibition at 900 mg (24 h, 900 mg QD, steady state, 24 hours post-last dose, read-out: inhibition of LPS-stimulated pERK) was > 90% and the inhibition at 75 mg (240 h, Day 10 predose, mean (SD), read-out: pERK Signal, % Inhibition) was 24.4%. For the same compound, the inhibition at 75 mg (240 h, Day 10 predose, median, read-out: pERK Signal, % Inhibition) was 41.3%, the inhibition at 300 mg (240 h, 300 mg QD multiple dose, Day 10 predose, mean (SD), read-out: pERK Signal, % Inhibition) was 93.5% and the inhibition at 300 mg (240 h, 300 mg QD multiple dose, Day 10 predose, median, read-out: pERK Signal, % Inhibition) was 93.4%. It also gave an inhibition at 600 mg (240 h, 600 mg BID multiple dose, Day 10 predose, mean (SD), read-out: pERK Signal, % Inhibition) of 98.6%, an inhibition at 600 mg (240 h, 600 mg BID multiple dose, Day 10 predose, median, read-out: pERK Signal, % Inhibition) of 100% and an inhibition at 900 mg (240 h, 900 mg QD multiple dose, Day 10 predose, mean (N=1), read-out: pERK Signal, % Inhibition) of 97.1%. For the same compound, the inhibition at 900 mg (240 h, 900 mg QD multiple dose, Day 10 predose, median (N=1), read-out: pERK Signal, % Inhibition) was 97.1%, the “inhibition of LPS-stimulated pERK in ex vivo whole blood samples” value (SAD and MAD cohorts) was “dose-dependent and reversible inhibition” and the “time of peak inhibition of LPS-stimulated pERK” value (single oral doses, fasted, all dosages, post-dose) was 3 hours.
